# From paper PMC4500896, “Frog intestinal perfusion to evaluate drug permeability: application to p-gp and cyp3a4 substrates” (Frontiers in Pharmacology, 2015)
# What was measured:
# frog intestine [1] = details: in vivo
# [2] = tested on: human intestinal permeability; set-up: method as in a (footnote not given); details: reported human Peff; ref a (footnote not given); cited from earlier work
# Caco-2 = tested on: Caco-2; set-up: method as in b (footnote not given); details: Caco-2 cell data; ref b (footnote not given); cited from earlier work
# [3] = Frog in situ single pass intestinal perfusion (SPIP), parallel-tube model; details: Rana tigrina (frog), pH 7.4
# rat everted gut sac = rat everted gut sac model; ref c (footnote not given); cited from earlier work
# frog intestine [4] = experiment: Frog in situ single pass intestinal perfusion (SPIP), parallel-tube model; details: non-absorbable marker in outlet perfusate, frog SPIP
structure (smiles),measurement,setting,value
CCCCc1nc(Cl)c(CO)n1Cc1ccc(-c2ccccc2-c2nn[nH]n2)cc1 [Losartan],Change in Peff of the probe drug when co-perfused with inhibitors,frog intestine [1],significant change in Peff was observed
same,"Effective permeability coefficient, Human",[2],1.15^a 10^-4cm s^-1
same,"Effective permeability coefficient, Caco-2",Caco-2,0.022^b 10^-4cm s^-1
same,Papp at 90 min,[3]; other: in situ single pass intestinal perfusion,42.7 ± 27 ×10⁻⁶ cm/s
Cc1ncc2n1-c1ccc(Cl)cc1C(c1ccccc1F)=NC2 [Midazolam],"Effective permeability coefficient, Rat",rat everted gut sac,2.08 ± 0.50^c 10^-4cm s^-1
same,Papp at 90 min,[3],203 ± 7 ×10⁻⁶ cm/s
O=S1(=O)OC(c2ccc(O)cc2)(c2ccc(O)cc2)c2ccccc21 [phenol red],Recovery of phenol red,frog intestine [4],98.3 ± 1.0%
